27 compounds from US8557816B2, “Aurora kinase modulators and method of use” (Amgen Inc., priority 2007, dated 2013) can be followed below.

In assay [1] the target is T1, AuroraA-TPX2 (Homo sapiens, UniProt O14965).
T1 construct: 20 μL of AuroraA-TPX2 KD GST for a final volume of about 41 μL; GST
T1 sequence (O14965 133-383 limits assumed): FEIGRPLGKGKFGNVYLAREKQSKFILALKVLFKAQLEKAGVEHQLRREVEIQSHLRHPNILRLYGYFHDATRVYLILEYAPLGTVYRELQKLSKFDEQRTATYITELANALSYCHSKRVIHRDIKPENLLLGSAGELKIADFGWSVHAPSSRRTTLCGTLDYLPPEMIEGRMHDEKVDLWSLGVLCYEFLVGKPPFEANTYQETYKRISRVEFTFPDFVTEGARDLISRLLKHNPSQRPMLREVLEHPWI
T1 sequence (Q9ULW0 1-43 partner limits assumed): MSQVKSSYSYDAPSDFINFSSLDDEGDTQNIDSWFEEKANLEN
The assay can be described thus: AuroraA-TPX2 Homogeneous Time Resolved Fluorescent (HTRF) kinase assay. The assay is classed as biochemical. Conditions: average; read-out: AurA_IC50_IP (uM Avg). In short, it runs like this:
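HTRF read-out (Eu 615 nm to APC 655 nm) of phosphorylated biotin-PLK, detected with 0.02 nM europium anti-phosphoPLK antibody and 0.0005 mg/mL SA-APC after overnight equilibration.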
A general note: Time-resolved FRET reads energy transfer from a long-lived donor to a nearby acceptor.

Assay [2] deals with T2, AuroraB (Homo sapiens, UniProt Q96GD4).
T2 construct: 20 μL of AuroraB FL H is for a final volume of 41 μL; His
The assay can be described thus: AuroraB Homogeneous Time Resolved Fluorescent (HTRF) kinase assay. The assay is classed as biochemical. Conditions: average; read-out: AurB_IC50_IP (uM Avg). A digest of the protocol: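 Read-out is time-resolved FRET between europium anti-phospho-H3 antibody and streptavidin-APC, added in EDTA buffer to stop the reaction and equilibrated about 60 min (ex 320, em 615 and 655 nm). Preceding reaction: ~90 min, full-length enzyme, ATP, 0.1 μM biotin-Histone H3 substrate, Mg/Mn HEPES buffer pH 7.5.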

T2 sequence (Q96GD4 whole entry): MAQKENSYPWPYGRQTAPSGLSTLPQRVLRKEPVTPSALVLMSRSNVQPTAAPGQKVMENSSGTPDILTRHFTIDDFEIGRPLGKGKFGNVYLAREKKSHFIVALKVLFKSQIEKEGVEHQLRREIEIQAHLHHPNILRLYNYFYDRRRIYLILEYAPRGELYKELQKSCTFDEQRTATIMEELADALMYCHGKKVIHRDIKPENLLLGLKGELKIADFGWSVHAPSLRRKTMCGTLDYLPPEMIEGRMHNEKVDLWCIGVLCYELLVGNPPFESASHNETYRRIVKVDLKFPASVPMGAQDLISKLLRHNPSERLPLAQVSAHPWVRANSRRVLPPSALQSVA

For `COc1cc2nccc(Oc3ccc(Nc4nnc(-c5ccccc5)c5ccccc45)cc3)c2cc1C(N)=O` [compound 225, 7-(methyloxy)-4-((4-((4-phenyl-1-phthalazinyl)amino)phenyl)oxy)-6-quinolinecarboxamide], the IC50 in assay [1] was found to be 0.023 µM; in assay [2], 0.004 µM.

As for `COc1cnc2c(Oc3ccc(Nc4nnc(-c5cccc(C(=O)N(C)C)c5)c5ccccc45)cc3)ccnc2c1` [compound 226, N,N-dimethyl-3-(4-((4-((7-(methyloxy)-1,5-naphthyridin-4-yl)oxy)phenyl)amino)-1-phthalazinyl)benzamide], the IC50 was found to be 0.187 µM in assay [1] and 0.014 µM in assay [2].

As for `COc1cnc2c(Oc3ccc(Nc4nnc(-c5ccc(OC)c(F)c5)c5ccccc45)cc3)ccnc2c1` [compound 227, 4-(3-fluoro-4-(methyloxy)phenyl)-N-(4-((7-(methyloxy)-1,5-naphthyridin-4-yl)oxy)phenyl)-1-phthalazinamine], the values for the IC50 in assay [1] and in assay [2] were 0.051 µM and 0.003 µM, respectively.

Turning to `COc1cnc2c(Oc3ccc(Nc4nnc(-c5ccc(Cl)cn5)c5ccccc45)cc3)ccnc2c1` [compound 228, 4-(5-chloro-2-pyridinyl)-N-(4-((7-(methyloxy)-1,5-naphthyridin-4-yl)oxy)phenyl)-1-phthalazinamine], the IC50 in assay [1] stood at 0.034 µM; in assay [2] it was 0.004 µM.

As to `CCc1ccc(-c2nnc(Nc3ccc(Oc4ccnc5cc(OC)cnc45)cc3)c3ccccc23)s1` [compound 229, 4-(5-ethyl-2-thienyl)-N-(4-((7-(methyloxy)-1,5-naphthyridin-4-yl)oxy)phenyl)-1-phthalazinamine], the IC50 in assay [1] was 0.024 µM; in assay [2] it was 0.007 µM.

For `c1ccc(-c2nnc(Nc3ccc(Oc4ccnc5c4NCCC5)cc3)c3ccccc23)cc1` [compound 230, 4-phenyl-N-(4-(5,6,7,8-tetrahydro-1,5-naphthyridin-4-yloxy)phenyl)-1-phthalazinamine], the IC50 came out at 5 µM in assay [1] and 0.031 µM in assay [2].

With `N#Cc1ccc2c(Oc3ccc(Nc4nnc(-c5ccc(Cl)c(C#N)c5)c5ccccc45)cc3)ccnc2c1` [compound 231, 4-((4-((4-(4-chloro-3-cyanophenyl)-1-phthalazinyl)amino)phenyl)oxy)-7-quinolinecarbonitrile], the IC50 in assay [1] amounted to 0.379 µM; in assay [2], 0.032 µM.

`COc1cnc2c(Sc3ccc(Nc4nnc(-c5ccc(Cl)cc5)c5ccccc45)cc3)ccnc2c1` [compound 232, 4-(4-chlorophenyl)-N-(4-((7-(methyloxy)-1,5-naphthyridin-4-yl)thio)phenyl)-1-phthalazinamine]: the IC50 in assay [1] is 0.036 µM; in assay [2] it was 0.015 µM.

For the compound `COc1cnc2c(Oc3ccc(Nc4nnc(-c5ccc(Cl)cc5C)c5ccccc45)cc3)ccnc2c1` [compound 233, 4-(4-chloro-2-methylphenyl)-N-(4-((7-(methyloxy)-1,5-naphthyridin-4-yl)oxy)phenyl)-1-phthalazinamine], the IC50 in assay [1] amounted to 0.845 µM; in assay [2], 0.021 µM.

For the compound `COc1cnc2c(Oc3ccc(Nc4nnc(-c5ccccc5)cc4C(C)C)cc3)ccnc2c1` [compound 234, 4-(1-methylethyl)-N-(4-((7-(methyloxy)-1,5-naphthyridin-4-yl)oxy)phenyl)-6-phenyl-3-pyridazinamine], the IC50 is 0.173 µM in assay [1] and 0.006 µM in assay [2].

For the compound `COc1cnc2c(Oc3ccc(Nc4nnc(-c5ccc(Cl)nc5)c5ccccc45)cc3)ccnc2c1` [compound 235, 4-(6-chloro-3-pyridinyl)-N-(4-((7-(methyloxy)-1,5-naphthyridin-4-yl)oxy)phenyl)-1-phthalazinamine], the results for the IC50 in assay [1] and in assay [2] were 0.123 µM and 0.003 µM, respectively.

With `COc1cnc2c(Oc3ccc(Nc4nnc(-c5ccc(Cl)c(C)c5)c5ccccc45)cc3)ccnc2c1` [compound 236, 4-(4-chloro-3-methylphenyl)-N-(4-((7-(methyloxy)-1,5-naphthyridin-4-yl)oxy)phenyl)-1-phthalazinamine], the IC50 in assay [1] turned out to be 0.027 µM; in assay [2] it was 0.008 µM.

As to `COc1cnc2c(Oc3ccc(Nc4nnc(-c5ccc(SC)cc5)c5ccccc45)cc3)ccnc2c1` [compound 237, N-(4-((7-(methyloxy)-1,5-naphthyridin-4-yl)oxy)phenyl)-4-(4-(methylthio)phenyl)-1-phthalazinamine], the IC50 was 0.038 µM in assay [1] and 0.005 µM in assay [2].

With `COc1ccc2nccc(Oc3ccc(Nc4nnc(-c5ccccc5)c5ccccc45)cc3)c2c1` [compound 238, N-(4-((6-(methyloxy)-4-quinolinyl)oxy)phenyl)-4-phenyl-1-phthalazinamine], the figures for the IC50 in assay [1] and in assay [2] were 0.265 µM and 0.005 µM, respectively.

Consider `COc1ccc2nccc(Oc3ccc(Nc4nnc(-c5ccc(Cl)cc5)c5ccccc45)cc3)c2c1` [compound 239, 4-(4-chlorophenyl)-N-(4-((6-(methyloxy)-4-quinolinyl)oxy)phenyl)-1-phthalazinamine], for which the values for the IC50 in assay [1] and in assay [2] were 0.12 µM and 0.008 µM, respectively.

For `COc1cccc(-c2nnc(Nc3ccc(Oc4ccnc5cc(-c6cncn6C)sc45)cc3)c3ccccc23)n1` [compound 240, N-(4-((2-(1-methyl-1H-imidazol-5-yl)thieno[3,2-b]pyridin-7-yl)oxy)phenyl)-4-(6-(methyloxy)-2-pyridinyl)-1-phthalazinamine], the IC50 in assay [1] came to 0.006 µM; in assay [2] it was 0.001 µM.

As for `Clc1ccc(-c2nnc(Nc3ccc(Oc4ccnc5[nH]ccc45)cc3)c3ccccc23)cc1` [compound 241, 4-(4-chlorophenyl)-N-(4-(1H-pyrrolo[2,3-b]pyridin-4-yloxy)phenyl)-1-phthalazinamine], the IC50 in assay [1] turned out to be 0.089 µM; in assay [2], 0.001 µM.

Turning to `N#Cc1ccc2c(Oc3ccc(Nc4nnc(-c5ccc(Cl)cc5)c5ccccc45)cc3)ccnc2c1` [compound 242, 4-((4-((4-(4-chlorophenyl)-1-phthalazinyl)amino)phenyl)oxy)-7-quinolinecarbonitrile], the IC50 in assay [1] came to 0.173 µM; in assay [2], 0.022 µM.

On to `COc1cnc2c(Oc3ccc(Nc4nnc(-c5ccc(C)c(F)c5)c5ccccc45)cc3)ccnc2c1` [compound 243, 4-(3-fluoro-4-methylphenyl)-N-(4-((7-(methyloxy)-1,5-naphthyridin-4-yl)oxy)phenyl)-1-phthalazinamine], for which the IC50 was determined as 0.014 µM in assay [1] and 0.005 µM in assay [2].

As to `Brc1cnc2c(Oc3ccc(Nc4nnc(-c5ccccc5)c5ccccc45)cc3)ccnc2c1` [compound 245, N-(4-((7-bromo-1,5-naphthyridin-4-yl)oxy)phenyl)-4-phenyl-1-phthalazinamine], the IC50 in assay [1] worked out at 0.153 µM; in assay [2], 0.006 µM.

For the compound `COc1cnc2c(Oc3ccc(Nc4nnc(-c5ccc(F)c(C)c5)c5ccccc45)cc3)ccnc2c1` [compound 246, 4-(4-fluoro-3-methylphenyl)-N-(4-((7-(methyloxy)-1,5-naphthyridin-4-yl)oxy)phenyl)-1-phthalazinamine], the IC50 in assay [1] amounted to 0.032 µM; in assay [2], 0.008 µM.

As for `COc1cnc2c(N(C)c3ccc(Nc4nnc(-c5cc(C)cs5)c5ccccc45)cc3)ccnc2c1` [compound 247, N-methyl-N-(7-(methyloxy)-1,5-naphthyridin-4-yl)-N′-(4-(4-methyl-2-thienyl)-1-phthalazinyl)-1,4-benzenediamine], the IC50 amounted to 0.219 µM in assay [1] and 0.032 µM in assay [2].

With `Cn1cncc1-c1cc2nccc(Oc3ccc(Nc4nnc(-c5ccc(Cl)cc5)c5ccccc45)cc3)c2s1` [compound 249, 4-(4-chlorophenyl)-N-(4-((2-(1-methyl-1H-imidazol-5-yl)thieno[3,2-b]pyridin-7-yl)oxy)phenyl)-1-phthalazinamine], the IC50 was 0.004 µM in assay [1] and 0.001 µM in assay [2].

As to `Clc1ccc(-c2nnc(Nc3ccc(Oc4ccnc5ccsc45)cc3)c3ccccc23)cc1` [compound 250, 4-(4-chlorophenyl)-N-(4-(thieno[3,2-b]pyridin-7-yloxy)phenyl)-1-phthalazinamine], the figures for the IC50 in assay [1] and in assay [2] were 0.094 µM and 0.003 µM, respectively.

With `c1ccc(-c2nnc(Nc3ccc(Oc4ccnc5ccsc45)cc3)c3ccccc23)cc1` [compound 251, 4-phenyl-N-(4-(thieno[3,2-b]pyridin-7-yloxy)phenyl)-1-phthalazinamine], the IC50 in assay [1] amounted to 0.376 µM; in assay [2], 0.004 µM.

Consider `Cc1ccc(-c2nnc(Nc3ccc(Oc4ccnc5ccsc45)cc3)c3ccccc23)cc1` [compound 252, 4-(4-methylphenyl)-N-(4-(thieno[3,2-b]pyridin-7-yloxy)phenyl)-1-phthalazinamine], for which the IC50 amounted to 0.077 µM in assay [1] and 0.005 µM in assay [2].

With `COc1cnc2c(Oc3ccc(Nc4nnc(-c5ccc(Cl)cc5OC)c5ccccc45)cc3)ccnc2c1` [compound 253, 4-(4-chloro-2-(methyloxy)phenyl)-N-(4-((7-(methyloxy)-1,5-naphthyridin-4-yl)oxy)phenyl)-1-phthalazinamine], the IC50 is 0.173 µM in assay [1] and 0.009 µM in assay [2].
